Laboratory results from article PMC10885137, “Site-Directed Mutagenesis of VvCYP76F14 (Cytochrome P450) Unveils Its Potential for Selection in Wine Grape Varieties Linked to the Development of Wine Bouquet” (Journal of Agricultural and Food Chemistry, 2024).
One block for each molecule: values may come before it.

How the values were obtained:
Conditions in all cases: 1 mM NADPH, ATR1 reductase, 100 mM Na/K phosphate pH 5.0, 26 °C, 1 h
[1] = molecular target: VvCYP76F14 (from "L35", full-bodied) (Vitis vinifera, UniProt A0A1B2ZBX8, G304A, form not given)
Excerpt: (§1) UPLC-MS/MS substrate depletion kinetics on VvCYP76F14 (from "L35", full-bodied)

[2] = molecular target: VvCYP76F14 (from "L35", full-bodied) (Vitis vinifera, UniProt A0A1B2ZBX8, T188A, form not given)
Excerpt: as §1

[3] = molecular target: VvCYP76F14 (from "L35", full-bodied) (Vitis vinifera, UniProt A0A1B2ZBX8)
Excerpt: as §1

[4] = molecular target: VvCYP76F14 (from "L35", full-bodied) (Vitis vinifera, UniProt A0A1B2ZBX8, D306A, form not given)
Excerpt: as §1

[5] = molecular target: VvCYP76F14 (from "L35", full-bodied) (Vitis vinifera, UniProt A0A1B2ZBX8, S485A, form not given)
Excerpt: as §1

[6] = molecular target: VvCYP76F14 (from "L35", full-bodied) (Vitis vinifera, UniProt A0A1B2ZBX8, I120L, form not given)
Excerpt: as §1

[7] = molecular target: VvCYP76F14 (from "L35", full-bodied) (Vitis vinifera, UniProt A0A1B2ZBX8, L298V, form not given)
Excerpt: as §1

[8] = molecular target: VvCYP76F14 (from "L35", full-bodied) (Vitis vinifera, UniProt A0A1B2ZBX8, F435A, form not given)
Excerpt: as §1

Sequence of VvCYP76F14 (from "L35", full-bodied) (Vitis vinifera, UniProt A0A1B2ZBX8, F435A, form not given) (A0A1B2ZBX8 entry or part of it F435A, form open): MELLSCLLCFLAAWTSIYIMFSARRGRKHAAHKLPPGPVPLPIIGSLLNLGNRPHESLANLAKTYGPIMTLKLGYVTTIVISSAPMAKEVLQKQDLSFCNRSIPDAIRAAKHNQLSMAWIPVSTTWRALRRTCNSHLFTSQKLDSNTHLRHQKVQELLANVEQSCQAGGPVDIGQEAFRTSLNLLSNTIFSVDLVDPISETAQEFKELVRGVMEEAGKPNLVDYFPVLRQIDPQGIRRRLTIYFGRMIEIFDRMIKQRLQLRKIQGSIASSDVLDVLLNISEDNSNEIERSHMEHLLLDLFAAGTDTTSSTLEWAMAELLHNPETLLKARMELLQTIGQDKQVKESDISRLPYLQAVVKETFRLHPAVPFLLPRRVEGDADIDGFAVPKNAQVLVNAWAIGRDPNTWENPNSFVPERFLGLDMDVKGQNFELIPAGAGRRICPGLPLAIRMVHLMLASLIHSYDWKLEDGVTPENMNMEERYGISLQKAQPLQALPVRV
Sequence of VvCYP76F14 (from "L35", full-bodied) (Vitis vinifera, UniProt A0A1B2ZBX8, L298V, form not given) (A0A1B2ZBX8 entry or part of it L298V, form open): as the sequence (A0A1B2ZBX8 entry or part of it F435A, form open) above, with L298V, A435F counted along it
Sequence of VvCYP76F14 (from "L35", full-bodied) (Vitis vinifera, UniProt A0A1B2ZBX8, I120L, form not given) (A0A1B2ZBX8 entry or part of it I120L, form open): as the sequence (A0A1B2ZBX8 entry or part of it F435A, form open) above, with I120L, A435F counted along it
Sequence of VvCYP76F14 (from "L35", full-bodied) (Vitis vinifera, UniProt A0A1B2ZBX8, T188A, form not given) (A0A1B2ZBX8 entry or part of it T188A, form open): as the sequence (A0A1B2ZBX8 entry or part of it F435A, form open) above, with T188A, A435F counted along it
Sequence of VvCYP76F14 (from "L35", full-bodied) (Vitis vinifera, UniProt A0A1B2ZBX8) (A0A1B2ZBX8 entry or part of it): as the sequence (A0A1B2ZBX8 entry or part of it F435A, form open) above, with A435F counted along it
Sequence of VvCYP76F14 (from "L35", full-bodied) (Vitis vinifera, UniProt A0A1B2ZBX8, G304A, form not given) (A0A1B2ZBX8 entry or part of it G304A, form open): as the sequence (A0A1B2ZBX8 entry or part of it F435A, form open) above, with G304A, A435F counted along it
Sequence of VvCYP76F14 (from "L35", full-bodied) (Vitis vinifera, UniProt A0A1B2ZBX8, D306A, form not given) (A0A1B2ZBX8 entry or part of it D306A, form open): as the sequence (A0A1B2ZBX8 entry or part of it F435A, form open) above, with D306A, A435F counted along it
Sequence of VvCYP76F14 (from "L35", full-bodied) (Vitis vinifera, UniProt A0A1B2ZBX8, S485A, form not given) (A0A1B2ZBX8 entry or part of it S485A, form open): as the sequence (A0A1B2ZBX8 entry or part of it F435A, form open) above, with A435F, S485A counted along it

Km [1]: 170 ± 13.6 µM
Km [2]: 77.4 ± 8.56 µM
Compound: C=CC(C)(O)CC/C=C(\C)CO (centres unmarked) [(E)-8-hydroxylinalool]

Km [3]: 41.4 ± 4.93 µM
Km [4]: 269 ± 17.7 µM
Km [5]: 172 ± 9.99 µM
Compound: C=CC(C)(O)CC/C=C(\C)C=O (centres unmarked) [(E)-8-oxolinalool]

Km [6]: 156 ± 12.8 µM
Km [7]: 74.7 ± 7.89 µM
Km [8]: 288 ± 19.3 µM
Compound: C=CC(C)(O)CCC=C(C)C (centres unmarked) [linalool]
